Source: EP2525224A1, “VDAC1-S as a cell marker” (Centre National de la Recherche Scientifique, priority 2011, dated 2012)

What was measured:
Assay type in all cases: cell-based
LS174 cells [1] = test: Caspase 3/7 activity (Caspase-Glo 3/7); settings: hypoxic cancer cells
Method: Quantification of the caspase 3/7 activity was done using a luciferin/luciferase based assay (Caspase-Glo 3/7 kit, Promega) according to the manufacture's instructions. Each condition was performed 8 times and the entire experiment was done 3 times. Significant differences are based on the Student's t test * p < 0.005. To test ABT-737 (Hickman et al., 2008, J Neurophysiol 99, 1515), LS 174 cells were cultured for 72 h in normoxia (N) or hypoxia 1% O2 (H 1 %) and ABT was then added for 24 h at different concentrations (0, 2 or 10 µM). Staurosporine (1 µg/ml) was added (+ Stau) 4 h prior to assay for caspase 3/7 activity, […]

LS174 cells [2] = test: Immunofluorescence of cytochrome c release; settings: with staurosporine
Method: Cells were grown on glass coverslips and then fixed in 3.3% paraformaldehyde for 30 min at room temperature (RT), permeabilized with 0.2% Triton X-100 for 5 min. Cells were blocked with phosphate-buffered saline (PBS) containing 0.2% gelatin, 2% bovine serum albumin for 30 min at RT, and incubated with anti-rabbit HIF-1α (1/1000 - described in "Immunoblotting"), and/or anti-mouse cyto. c (1/500 - BD Bioscience) or anti-rabbit VDAC (1/400 - Abcam) antibodies in PBS for 3 h at RT. After washing, cells were incubated in the presence of a biotinylated anti-mouse secondary antibody conjugated to Alexa 594 (1:400) or anti-rabbit secondary antibody conjugated to Alexa 488 (1:400) for 1 h at RT (Invitrogen). After washing, coverslips were mounted in Cytifluor (Amersham Biosciences), detection of the fluorescence was performed with a Leica DMR fluorescence microscope, and images were recorded using RSImage software.

LS174 cells [3] = test: Flow cytometric analysis of mitochondrial transmembrane potential (ΔΨm) with DiOC6(3); settings: staurosporine 1 µM for 18h
Method: The following fluorochromes were employed to determine mitochondrial function by cytofluorometry: 3,3'-dihexyloxacarbocyanine iodide [DiOC6(3), 50 nM (Invitrogen) for mitochondrial transmembrane potential (ΔΨm) quantification and propidium iodide (PI; 1 µg/ml (Sigma) for determination of cell viability (all from Molecular Probes). Cells were trypsinized and labeled with the fluorochromes at 37°C, followed by cytofluorometric analysis with a fluorescence-activated cell sorter (FACS) scan (Becton Dickinson). The fluorescence intensity of DiOC6 (3) (which measures ΔΨm) is plotted against the propidium iodide signal ([…]). The CellQuest software (Becton Dickinson) was used for the data analysis.

## COc1cc([C@@H]2c3cc4c(cc3[C@@H](O[C@@H]3O[C@@H]5CO[C@@H](C)O[C@H]5[C@H](O)[C@H]3O)[C@H]3COC(=O)[C@H]23)OCO4)cc(OC)c1O [etoposide]
LS174 cells [1]
  induced apoptosis: resistant

## CN[C@@H]1C[C@H]2O[C@@](C)([C@@H]1OC)n1c3ccccc3c3c4c(c5c6ccccc6n2c5c31)C(=O)NC4 [staurosporine]
LS174 cells [2]; hypoxic cells with enlarged mitochondria
  release of mitochondrial cytochrome c into the cytoplasm: do not show release of cyto. c
LS174 cells [2]; normoxia
  release of mitochondrial cytochrome c into the cytoplasm: released mitochondrial cytochrome c (cyto. c) into the cytoplasm
LS174 cells [1]
  induced apoptosis: resistant
LS174 cells [3]; hypoxia 1 % O2 for 72h
  ΔΨm: remained unaffected
LS174 cells [3]; normoxia
  ΔΨm: decreased
